The values that follow come from publication PMC11154958, “Mechanism of Nitrone Formation by a Flavin-Dependent Monooxygenase” (Biochemistry, 2024).

Values joined by “and” are separate entries in the source; they are usually repeats but may differ in a detail not shown here. Equal entries are not always repeated. Where two headings read alike, the source gives them in different places.

Details of series [1]: method as in ref 18−20. The conditions noted are these: ref 18−20; cited from earlier work.
The subject of series [2] is human breast and leukemia cancer cell lines. On the set-up: method as in ref 18−20. The note with it: ref 18−20; cited from earlier work.
In series [3] the target is T1, OxaD D63A (Penicillium oxalicum, UniProt A0A1B2TT15, D63A). The series is described as follows: Anaerobic stopped-flow, reductive-half reaction, D63A mutant. Type of series: biochemical, Penicillium oxalicum F30. The note with it: for kred2: slow phase.
Series [4] deals with T2, OxaD (Penicillium oxalicum, UniProt A0A1B2TT15). The note with it: for kred2: slow phase.
Method: To remove oxygen from the enzyme sample, OxaD (or D63A) was degassed along with buffer solutions as previously described. The stopped-flow was incubated with an anaerobic solution of 0.6 μM glucose oxidase and 100 mM D-glucose in 100 mM sodium acetate, pH 5.0, overnight to remove any oxygen.[27] […] For all stopped-flow experiments, the concentrations listed are after mixing in the instrument. […] Absorbance changes between 200 and 800 nm were recorded. The decrease in absorbance at 446 nm was fit to eq 2 to obtain the observed rate constant of the fast phase (k1) and of the slow phase (k2). A446 is the absorbance at 446 nm, A is the amplitude of the phase, t is time, and C is the final absorbance at 446 nm. […] Oxygenated buffer was prepared by bubbling 30 cc/min (pressure regulated by a flowmeter) of 100% oxygen into the OxaD activity buffer on an ice bath for 1 h while stirring. The resulting oxygen solution has a concentration of 1.2 mM.[27] Oxidation of reduced OxaD or D63A was investigated at various concentrations of oxygen (100–600 μM) at room temperature. To obtain lower oxygen concentrations, the saturated oxygen solution was diluted with anaerobic buffer. Absorbance changes at 200–800 nm were recorded. Absorbance changes at 365 nm were fit to eq 4 to account for the absorbance increase and decrease. In eq 4, A365 is the absorbance values at 365 nm, A1 and A2 are the changes in absorbance related to a single phase, k1 is the rate of absorbance increase, and k2 is the rate of absorbance decrease. Absorbance increases at 446 nm were fit to eq 5, where A446 is the absorbance values at 446 nm, kobs is the observed rate and AΔ is the change in absorbance. In both eq 4 and eq 5, A0 is the initial absorbance and t is time. The bimolecular rate constant was determined using a linear equation. All data fitting was carried out with KaleidaGraph. Spectral deconvolution was carried out using a three-step model that accounted for the reduced enzyme–substrate complex, the enzyme-intermediate complex, and the final oxidized enzyme.
The subject of series [5] is OxaD D63A. As to the kind of experiment: Anaerobic stopped-flow, reductive-half reaction, D63A mutant. Type of series: biochemical, Penicillium oxalicum F30. The note with it: D63A vs OxaD.
Series [6] relates to OxaD D63A. The note with it: D63A vs OxaD.
Method: (§2) OxaD D63A (D63A from hereon) was expressed and purified using the same procedures as those described for OxaD.
(§3) All oxygen consumption assays were performed using an Oxygraph+ system from Hansatech Instruments (Norfolk, U.K.). Assays were performed in 25 mM HEPES/Na^+ buffer, pH 7.6, 50 mM NaCl, 1% DMSO (750 μL total volume). […] Equation 1 was used to determine the turnover number (kcat) and Michaelis–Menten constant (KM).
In series [7] the target is T1, OxaD D63A.
Method: as §2, §3
The subject of a further series is mice. Further details: method as in ref 11−14. The conditions noted are these: mice exposed to roquefortine C; ref 11−14; cited from earlier work.
Series [8] deals with cytochrome P450s in the liver and kidneys. On the set-up: method as in PMID 16019806. The conditions noted are these: likely through binding to the heme in the active site; cited from earlier work.
Series [9] addresses T2, OxaD. On the set-up: method as in PMID 27505044. The note with it: previous characterization; cited from earlier work.
Series [10] has as its target T2, OxaD. The series is described as follows: Oxygen consumption assay, steady-state kinetics. The conditions noted are these: OxaD 1 μM; pH 7.6, 1% DMSO; roquefortine C fixed 100 μM for cosubstrates; NADPH fixed 500 μM when roquefortine C varied.
Method: All oxygen consumption assays were performed using an Oxygraph+ system from Hansatech Instruments (Norfolk, U.K.). Assays were performed in 25 mM HEPES/Na^+ buffer, pH 7.6, 50 mM NaCl, 1% DMSO (750 μL total volume).
The target of the next series is T3, oxidized D63A (Penicillium oxalicum, UniProt A0A1B2TT15, D63A).
T3 sequence (A0A1B2TT15 1-467 D63A): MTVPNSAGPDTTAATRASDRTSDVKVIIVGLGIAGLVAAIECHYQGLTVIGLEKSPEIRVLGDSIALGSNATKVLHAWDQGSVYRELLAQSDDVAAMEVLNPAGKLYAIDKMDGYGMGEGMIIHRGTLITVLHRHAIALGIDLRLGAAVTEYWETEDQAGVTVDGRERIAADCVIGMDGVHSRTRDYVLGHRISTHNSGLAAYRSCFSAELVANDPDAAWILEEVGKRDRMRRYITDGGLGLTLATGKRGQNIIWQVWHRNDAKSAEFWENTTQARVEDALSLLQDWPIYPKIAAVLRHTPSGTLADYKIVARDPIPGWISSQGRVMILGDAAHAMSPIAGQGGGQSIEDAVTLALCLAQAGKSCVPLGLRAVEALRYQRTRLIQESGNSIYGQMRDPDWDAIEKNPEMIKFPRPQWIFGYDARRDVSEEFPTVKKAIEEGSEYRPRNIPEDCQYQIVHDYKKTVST
Type of series: binding, Penicillium oxalicum F30. The note with it: 15 μM oxidized D63A, roquefortine C 0–40 μM, pH 7.6; read-out: apparent KD. As for the experimental part:
(§1) These methods were adapted from Abdelwahab et al., 2016.[29] […] The instrument was blanked with each concentration of roquefortine C prior to recording the enzyme–substrate complex spectra. Each solution was 200 μL and contained 15 μM of enzyme, and various roquefortine C concentrations (0–40 μM). Prior to recording the spectra, the enzyme was incubated on ice for 5 min with the substrate and the spectra were measured immediately following the incubation.

The target of another series is T4, oxidized OxaD (Penicillium oxalicum, UniProt A0A1B2TT15).
T4 sequence (A0A1B2TT15 1-467): T3 sequence (A0A1B2TT15 1-467 D63A)
Type of series: binding, Penicillium oxalicum F30. The note with it: 15 μM oxidized OxaD, roquefortine C 0–40 μM, pH 7.6; read-out: apparent KD. As for the experimental part: as §1

Where [11] appears, read: D63A 10 μM, 10 μM roquefortine C, fast phase.
[12] abbreviates: D63A 10 μM, 10 μM roquefortine C.
Setting [13] is: OxaD 10 μM, 10 μM roquefortine C, fast phase, apparent.
Setting [14] is: OxaD 10 μM, 10 μM roquefortine C.

`C=CC(C)(C)[C@]12C=C(O)C(=O)N3/C(=C/c4cnc[nH]4)C(=O)N[C@@]31N(O)c1ccccc12` [glandicoline B]: the antibacterial effects entry in [1] was “antibacterial effects”.

With `C=CC(C)(C)[C@]12C=C(OC)C(=O)N3/C(=C/c4c[nH]cn4)C(=O)N[C@@]31N(OC)c1ccccc12` [oxaline], the antibacterial effects entry in [1] is listed as “antibacterial effects”. The anticancer properties result in series [2] is given as “anticancer properties”.

For NADPH [Synthesized NADPH], the kred1 at OxaD D63A [3] (setting [11]) is on record as 8.6 ± 0.14 s^–1; at OxaD [4] (setting [13]), 45 ± 0.70 s^–1. The kred2 on OxaD D63A [3] (setting [12]) is reported as 0.20 ± 0.04 s^–1; at OxaD [4] (setting [14]), 0.32 ± 0.02 s^–1.

Regarding Melegranin, the anticancer properties result in series [2] was “anticancer properties”.

In the case of NADPH, the kred1 was found to be 9.0 ± 0.20 s^–1 at OxaD D63A [3] (setting [11]); 0.17 ± 0.01 s^–1 on OxaD D63A [3] (D63A, No roquefortine C); 48 ± 0.80 s^–1 on OxaD [4] (setting [13]); 0.40 ± 0.10 s^–1 on OxaD [4] (OxaD, No roquefortine C). For the same compound, the kred2 amounted to 0.18 ± 0.01 s^–1 at OxaD D63A [3] (setting [12]) and 0.39 ± 0.01 s^–1 on OxaD [4] (setting [14]). In addition, the “kred1/KD(app)” value on OxaD D63A [3] (D63A, 10 μM roquefortine C) was 7.2 × 10^3 ± 1.4 × 10^3 M^–1·s^–1; at OxaD [4] (OxaD, 10 μM roquefortine C), 9.0 × 10^4 ± 2.0 × 10^3 M^–1·s^–1. For the same compound, the “decrease in kred compared to OxaD” value with OxaD D63A [5] is reported as roughly 5 fold. In the series on OxaD D63A [6], the “increase in KM compared to OxaD” value amounted to 25 fold.

As for NADH, the kred1 on OxaD [4] (setting [13]) came to 43 ± 0.30 s^–1. Besides, the kred2 at OxaD [4] (setting [14]) worked out at 0.34 ± 0.01 s^–1. On OxaD [4] (OxaD, NADH vs NADPH), the “increase in KD(app) relative to NADPH” value is roughly 3 fold.

For (R)-[4-^2H]-NADPH, the kred1 at OxaD D63A [3] (setting [11]) turned out to be 2.4 ± 0.08 s^–1; on OxaD [4] (setting [13]), 9.1 ± 0.10 s^–1. The kred2 on OxaD D63A [3] (setting [12]) is given as 0.17 ± 0.01 s^–1; on OxaD [4] (setting [14]), 0.24 ± 0.05 s^–1. Moreover, on OxaD D63A [3] (D63A, 4 mM synthesized NADPH vs 4 mM (R)-[4-^2H]-NADPH), the “^Dkred (kinetic isotope effect on rate of reduction)” value is reported as “^Dkred = 3.60 ± 0.13”. Moreover, at OxaD D63A [7] (D63A, synthesized NADPH vs (R)-[4-^2H]-NADPH), the “^Dkcat (kinetic isotope effect on kcat)” value is reported as “^Dkcat = 3.40 ± 0.38”.

Consider `C=CC(C)(C)[C@@]12C[C@H]3C(=O)N/C(=C/c4c[nH]cn4)C(=O)N3[C@@H]1Nc1ccccc12` [Roquefortine C], for which the “enhancement of kred in the presence of substrate” value on OxaD D63A [3] (D63A, with vs without substrate) is reported as roughly 50 fold. In addition, in the series on mice, the “toxic effects in mice” value was “cytotoxic, immunotoxic, neurotoxic, and lung inflammatory effects”. In series [8], the “effect on cytochrome P450s” value is “deactivate cytochrome P450s in the liver and kidneys”. For the same compound, the “enhancement of kred by presence of roquefortine C” value on OxaD [4] (OxaD, with vs without roquefortine C) is given as 120 fold. Further, the Km (in general, the concentration of substrate that gives half-maximal velocity) was 0.071 µM at OxaD [9], 3.5 ± 0.9 µM on OxaD D63A [7] (pH 7.6) and 3 ± 1 µM at OxaD [10]. Besides, the figures for the kcat on OxaD [9] and on OxaD [10] were 0.017 s^–1 and 0.93 ± 0.07 s^–1, respectively. Further, the “increase in kcat compared to OxaD” value in the series on OxaD D63A [6] (oxygen consumption) is given as roughly 2 fold. Besides, the Kd was 6.4 ± 0.2 µM at oxidized D63A; 6.9 µM and ~6.9 µM on oxidized OxaD.
